According to article PMC11365428 (The Journal of Biological Chemistry, 2024):
Non-standard residues stand in square brackets, D forms with d. Residues, ends and D or L forms follow the SMILES beside them. pGlu = O=C1CC[C@@H](C(=O)O)N1

How the values were obtained:
Format in all cases: cell-based
apTKRPR-B [1] = target: T1, apTKRPR-B (Aplysia californica, UniProt A0AAU7STS1); experiment: IP1 accumulation assay, CHO-K1 cells transiently expressing apTKRPR-B
T1 sequence (A0AAU7STS1 1-447): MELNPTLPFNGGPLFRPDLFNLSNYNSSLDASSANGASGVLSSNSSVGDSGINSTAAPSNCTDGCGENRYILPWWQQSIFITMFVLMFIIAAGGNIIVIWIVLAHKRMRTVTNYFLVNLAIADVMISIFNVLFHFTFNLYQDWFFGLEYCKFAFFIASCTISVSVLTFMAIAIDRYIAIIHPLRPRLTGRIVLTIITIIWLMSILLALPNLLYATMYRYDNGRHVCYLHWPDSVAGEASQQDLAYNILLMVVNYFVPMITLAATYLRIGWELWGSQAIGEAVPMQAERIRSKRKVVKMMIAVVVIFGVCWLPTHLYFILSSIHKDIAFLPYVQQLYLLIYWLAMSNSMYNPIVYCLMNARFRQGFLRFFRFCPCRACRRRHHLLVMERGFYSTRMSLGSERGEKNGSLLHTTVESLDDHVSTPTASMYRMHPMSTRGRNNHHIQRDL
Description: To express putative Aplysia receptors transiently in CHO-K1 cells, the cDNAs were subcloned into the pcDNA3.1(+) or pcDNA3.1(+)-FLAG (for ELISA experiments only, see “Cell surface expression analysis by ELISA” section) expression vector. On the day before transfection, the CHO-K1 cells were passaged into 60 mm diameter tissue culture–treated dishes, and the transfection experiments were performed when the cells were grown to 70 to 90% confluence. CHO-K1 cells were transfected with the cDNA plasmid constructs using Turbofect Transfection reagent (Thermo Fisher Scientific, R0531), following the manufacturer’s instructions. […] The DNA/TurboFect mixture dropwise was then added to the dish, and the cells were incubated at 37 °C in a humidified incubator containing 5% CO2 overnight.
On the third day, the activation of the putative receptors was detected by monitoring intracellular IP1 concentration using an IP-One Gq kit (Cisbio, 62IPAPEB) in Tecan Spark. Except for using 0.5x reagent, all other procedures were performed following the manufacturer’s instructions. IP1 accumulation assay measures the accumulation of IP1, which is hydrolyzed from the second messenger, and inositol triphosphate. Inositol triphosphate is generated by the Gαq pathway when a GPCR is activated by an appropriate ligand.

apTKRPR-B [2] = target: T1, apTKRPR-B; experiment: Receptor desensitization assay, protocol 2 (repeated agonist exposure), apTKRPR-B; details: 10 μM pretreatment 2-60 min without LiCl, wash, second 10 μM application for 15 min with LiCl; % of control; n = 5
Description: Therefore, we adopted two protocols to study the desensitization of apTKRPRs. The protocols were performed using a procedure modified from previous work ([87], [88], [89]).
Protocol 2 ([89]): To simulate repeated stimulation with an agonist, we examined agonist-induced desensitization by quantifying the accumulation level of IP1 after two applications of the agonist/ligand. Because the IP1 accumulation assay involves using LiCl to stop the degradation of IP1, in this protocol, LiCl was applied only during the second application of the agonist. Specifically, to elicit desensitization, cells were first exposed to 10 μM apTKRP-2b in the absence of LiCl for various pretreatment durations (pretreatment stage/phase Ⅰ). After this agonist exposure, cells were washed (three times) rapidly with PBS (phase Ⅱ), and the wash was consistently performed in each experiment. Responsiveness of the receptor was then assessed by measuring intracellular concentrations of IP1 accumulation in response to a second application of 10 μM apTKRP-2b for 15 min in the presence of LiCl (phase Ⅲ) (Fig. S11).

apTKRPR-A 5A = apTKRPR-A 5A (Aplysia californica, UniProt A0AAU7SSZ1, S377A/S394A/T379A/T387A/T393A); experiment: IP1 accumulation assay, Ser/Thr-to-Ala mutant apTKRPR-A 5A
Description: To express putative Aplysia receptors transiently in CHO-K1 cells, the cDNAs were subcloned into the pcDNA3.1(+) or pcDNA3.1(+)-FLAG (for ELISA experiments only, see “Cell surface expression analysis by ELISA” section) expression vector. On the day before transfection, the CHO-K1 cells were passaged into 60 mm diameter tissue culture–treated dishes, and the transfection experiments were performed when the cells were grown to 70 to 90% confluence. CHO-K1 cells were transfected with the cDNA plasmid constructs using Turbofect Transfection reagent (Thermo Fisher Scientific, R0531), following the manufacturer’s instructions. In brief, 4 μg of the putative receptor plasmids [in pcDNA3.1(+) or pcDNA3.1(+)-FLAG] were mixed with 400 μl of Opti-MEM (Gibco, 11058021), followed by the addition of 15 μl of TurboFect Transfection reagent and incubated at room temperature for 15 min. […]
The next day, transfected cells were trypsinized and reseeded in an opaque white 96-well half-area (Corning, 3688) or 384-well tissue culture–treated plates (Corning, 3570) at a density of 20,000 cells/well in F-12K and 10% FBS and incubated at 37 °C in a humidified incubator containing 5% CO2 overnight. On the third day, the activation of the putative receptors was detected by monitoring intracellular IP1 concentration using an IP-One Gq kit (Cisbio, 62IPAPEB) in Tecan Spark. […]

apTKRPR-A 5A, sequence (A0AAU7SSZ1 entry or part of it S377A/T379A/T387A/T393A/S394A): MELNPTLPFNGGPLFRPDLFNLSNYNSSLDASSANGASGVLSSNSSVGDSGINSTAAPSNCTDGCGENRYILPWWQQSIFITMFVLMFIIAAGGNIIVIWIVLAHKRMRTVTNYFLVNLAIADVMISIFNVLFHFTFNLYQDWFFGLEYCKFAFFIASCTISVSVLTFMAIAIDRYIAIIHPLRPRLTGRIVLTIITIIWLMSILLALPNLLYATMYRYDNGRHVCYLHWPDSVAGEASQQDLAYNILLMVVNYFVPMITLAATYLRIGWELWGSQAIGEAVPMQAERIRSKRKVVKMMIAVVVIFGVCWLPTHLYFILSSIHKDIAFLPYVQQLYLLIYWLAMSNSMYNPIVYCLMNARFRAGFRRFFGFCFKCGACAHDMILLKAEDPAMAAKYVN

SMILES: CC(C)C[C@H](NC(=O)[C@H](Cc1c[nH]cn1)NC(=O)[C@@H]1CCCN1C(=O)[C@@H]1CCC(=O)N1)C(=O)NCC(=O)N[C@@H](Cc1ccccc1)C(=O)N[C@@H](Cc1c[nH]cn1)C(=O)NCC(=O)N[C@@H](CO)C(=O)N[C@@H](CCCNC(=N)N)C(N)=O [apTKRP-2b] ([pGlu]PHLGFHGSR-NH2)
- EC50 (apTKRPR-B [1]): 5.37 nM
- IP1 response of apTKRPR-B in screening (apTKRPR-B [1]; 10^-5 M compared with 10^-10 M (control), n = 3, no Gαq cotransfection): responded
- IP1 accumulation after pretreatment, apTKRPR-B (protocol 2) (apTKRPR-B [2]): IP1 accumulation was less after the second exposure
- EC50 (apTKRPR-A 5A): 58.9 nM
